# Experimental data published in a melting point compilation (Tetko et al.).
# Peptide text beside a SMILES is read from it.
row,Structure (SMILES),melting point
1,O=C1CC[C@H]2CCc3ccccc3[C@@H]2O1,138 to 141 °C
2,NNc1cc(Cl)c(C(F)(F)F)cc1[N+](=O)[O-],140 to 145 °C
3,O=S1(=O)OC(c2cc(Br)c(O)c(Br)c2)(c2cc(Br)c(O)c(Br)c2)c2c(Br)c(Br)c(Br)c(Br)c21,203 to 205 °C
4,CSc1nc2ccccc2c(=O)n1C,65 to 67 °C
5,CCOP(=S)(OCC)Oc1cnc2ccccc2n1,31.5 °C
6,S=c1[nH]ccn1-c1ccccc1Cl,246 to 248 °C
7,Cc1ccc(-c2csc(N)n2)cc1,137 °C
8,O=Cc1cccc(-n2cccn2)c1,38 to 39 °C
9,O=C(O)C(F)(F)C(F)(F)C(F)(F)C(F)(F)C(F)(F)C(F)(F)C(F)(F)C(F)F,67 °C
10,O=Cc1cccc(-c2ccncc2)c1,48 °C
11,CN1C(=O)NC(=O)C1(C)C,163 °C
12,O=C(Nc1ccccc1SC(=O)c1ccccc1)c1ccccc1,152 °C
13,Cc1ccc(C(c2ccc(C)o2)c2ccccc2Br)o1,57 °C
14,COc1ccc(-c2csnn2)cc1,89 to 93 °C
15,O=C(CCl)Nc1ccccc1Cl,70 to 73 °C
16,COc1ccccc1C(=O)Oc1ccc(C(=O)/C=C/c2ccc(N(C)C)cc2)cc1,99 °C
17,CCN1C(=O)CC(=O)N(CC)C1=S,106 to 109 °C
18,O=C(O)/C=C/c1c(F)cccc1F,124 to 125 °C
19,NC(C(=O)O)C1=CCC=CC1 (centres undefined),260 °C
20,COc1ccc(OC)c2c1CC2=O,105 °C
21,N#Cc1sccc1Br,49 °C
22,O=C(c1ccccc1)c1ccccc1N=Nc1ccccc1C(=O)c1ccccc1,205 °C
23,CC(=O)Nc1ccc([N+](=O)[O-])c(C(F)(F)F)c1,108 to 109 °C
24,O=CC(O)C1OC(=O)C(O)C1O (centres undefined),178 °C
25,c1ccc(CC2CCNCC2)cc1,16.8 °C

row,Structure (SMILES),melting point
1,N#Cc1ccc(F)c(F)c1,50 °C
2,Clc1cc(Cl)c(I)cc1Cl,104 °C
3,O=c1cc(-c2ccccc2)oc2ccc(Cl)cc12,183 to 187 °C
4,O=C=Nc1c(Br)cc(F)cc1Br,44 °C
5,O=C1CCc2ccc(F)cc21,61 to 63 °C
6,O=C(O)c1cc([N+](=O)[O-])ccc1Br,180 °C
7,O=C(O)c1ccc(O)cc1C(=O)O,191 to 194 °C
8,CC(/C=C/c1ccccc1)=C\C(C)=N\Nc1ccc([N+](=O)[O-])cc1[N+](=O)[O-],232 to 234 °C
9,Nc1ccc(S(=O)c2ccc(N)cc2)cc1,175 °C
10,O=S(=O)(Cl)c1c(F)c(Br)cc(F)c1Br,69 °C
11,CNCC(O)c1ccccc1 (racemic),74 to 76 °C
12,Cc1c(-c2ccccc2)oc(-c2ccccc2)c(C)c1=O,144 °C
13,Nc1n[nH]c(N)c1Cc1ccc(F)cc1,159 to 161 °C
14,O=C(Cl)c1cc(I)ccc1F,29 °C
15,O=c1[nH]c2scc(-c3ccccc3)c2c(=O)n1-c1ccc(Cl)c(Cl)c1,274 to 276 °C
16,N=C1NC(=O)C(=NNc2ccccc2)S1,210 °C
17,OCCN1CCCCC1C(c1ccccc1)c1ccccc1 (centres undefined),106 °C
18,Nc1c(C(=O)O)cccc1[N+](=O)[O-],211 °C
19,O=Cc1ccc(-n2cncn2)cc1,147 to 149 °C
20,O=C1c2ccccc2C(=O)C1c1ccc2ccccc2n1,241 °C
21,COC1(C=O)C=CC2=C(C1)OCO2 (centres undefined),129 °C
22,Clc1cc2nsnc2cc1CBr,75 to 77 °C
23,CNCCc1c[nH]c2ccccc12,88 °C
24,Fc1c(F)c(F)c(P(c2c(F)c(F)c(F)c(F)c2F)c2c(F)c(F)c(F)c(F)c2F)c(F)c1F,117 °C
25,CCOC1C(=O)NC2=C(C1=O)C(c1ccc(Br)cc1)c1c(c3ccccc3oc1=O)O2 (centres undefined),196 °C

row,Structure (SMILES),melting point
1,Cc1ncnc2[nH]cnc12,235 to 240 °C
2,O=Cc1coc2c(Cl)cc(Cl)cc2c1=O,169 to 174 °C
3,N#CCc1c(F)cccc1Cl,42 °C
4,Oc1ccc2ccc(O)cc2c1,193 °C
5,CN(C)CCc1ccc(O)cc1,118 °C
6,Cc1cc(C(F)(F)F)cc(NN)n1,79 to 81 °C
7,ClC=CCl,-80 °C
8,Brc1cc(Br)ncn1,51 °C
9,CC(C)=CC1C(C(=O)OCN2C(=O)C3=C(CCCC3)C2=O)C1(C)C (centres undefined),69 °C
10,CC1=CC=C(C(C)C)CC1,-31.1 °C
11,Cc1ccc(C(C)(C)C)cc1,-54 °C
12,CNC(=O)CCl,46 °C
13,COc1ccc2[nH]cc(CCN(C)C)c2c1,69.5 °C
14,Brc1cccc2c1Oc1ccccc1O2,104 °C
15,Cc1cnnc2ccc3nonc3c12,171 to 173 °C
16,O=C(O)C1OC(O)C(O)C(O)C1O (centres undefined),158 to 162 °C
17,Nc1ccccc1COc1ccccc1,78 °C
18,Fc1ccccc1Cl,-43 °C
19,COc1cccc(C)c1[N+](=O)[O-],50 °C
20,COc1cc(N)c2ncccc2c1,52 °C
21,S=C=Nc1ccccc1Br,20 °C
22,O=Cc1ccc(N2CCCC2=O)cc1,121 to 122 °C
23,Oc1ccc(C=Nc2ccccc2N=Cc2ccc(O)cc2O)c(O)c1,163 to 165 °C
24,C1CCCCCCCCCCCCC1,54 °C

# Other lines, results leading:
row,melting point,Structure (SMILES)
1,51.1 °C,CCCCCCCCCCCCCCCCO
2,117 °C,Cc1c(C)c(CCl)c(C)c(CCl)c1C
3,-6 °C,CCNCCO
4,130 °C,CCOC(=O)c1cc(C)n(Cn2nc(C(=O)OCC)cc2C)n1
5,250 to 253 °C,CC(=O)Nc1ccc(C2=NNC(=O)CC2)cc1
6,137 to 139 °C,CCOC(=O)c1cc(-c2cccs2)n[nH]1
7,186 °C,Cc1ccc(C(=O)O)c([N+](=O)[O-])c1O
8,78 °C,CC(C)(C)CC(C)(C)c1ccc(O)c(Cc2ccc(Cl)cc2Cl)c1
9,79 to 81 °C,CCCCOc1ccc(-c2nnc3sc(/C=C/c4ccccc4)nn23)cc1
10,-18 °C,NCCCNC1CCCCC1
11,176 °C,NC(=O)C(Cc1ccc([N+](=O)[O-])cc1)c1ccccc1 (centres undefined)
12,169 to 171 °C,ON(Cc1c(F)cccc1Cl)Cc1c(F)cccc1Cl
13,-80 °C,CCCC(C)Cl (centres undefined)
14,222 °C,CC(=O)C1(O)CCC2C3CCC4=CC(=O)CCC4(C)C3CCC21C (centres undefined)
15,120 to 121 °C,COc1cscc1C(N)=O
16,-32 °C,CCCCCCCCC=CCCCCCCCC(=O)OCC
17,-21 °C,C#CCCCCCC#C
18,125 °C,CC1CCC(C(C)C)C(OC(=O)C2=CCC(C(=O)OC3CC(C)CCC3C(C)C)CC2)C1 (centres undefined)
19,152 °C,CC(C)(C)Oc1ccc(O)cc1
20,199 to 200 °C,CCOC(=O)C(Br)=NNc1ccc([N+](=O)[O-])cc1

row,melting point,Structure (SMILES)
1,46 to 47 °C,COc1ccc(C(=O)Cl)cc1OC1CCCC1
2,285 to 287 °C,Cc1cc(C)c(C#N)c(O)n1
3,-136 °C,C=C=CC
4,130 to 132 °C,COc1cc2c(cc1OC)C(c1ccc(Cl)cc1)N(C(C)=O)CC2 (centres undefined)
5,168 °C,CN(C)C=Nc1c(I)cc(I)c(CCC(=O)O)c1I
6,164 °C,COc1ccc2c(C(=S)N(C)CC(=O)O)cccc2c1C(F)(F)F
7,90 to 94 °C,COc1ccc([N+](=O)[O-])c(O)c1
8,53 to 59 °C,BrCc1ccccc1COc1ccccc1
9,32 °C,CCCCCCCCc1ccc(C(Cl)=Cc2ccc(OCC)cc2)cc1
10,11 °C,OCCCCCCCCl
11,239 to 241 °C,O=C(O)c1ccc(-c2nccs2)cc1
12,60 °C,CCOC(=O)C(C#N)c1ccccc1[N+](=O)[O-] (centres undefined)
13,159 °C,COc1ccc2c(c1)CCC1C2CCC2(C)C(O)C(O)CC12 (centres undefined)
14,28 °C,O=C(O)CCCCCCCc1ccccc1
15,226 to 227 °C,CC(C)(C)OC(=O)N1CCC2(CC1)NC(=O)c1cc(Br)ccc1O2
16,75 °C,COc1ccc(F)c(O)c1F
17,133 °C,COC(=O)c1cc(O)cc(Br)c1
18,210 °C,CCCCCNc1ccc(NCCCCC)c2c1C(=O)c1ccccc1C2=O
19,119 °C,O=C(NCCO)C1CCCNC1 (centres undefined)
20,147 °C,Cc1ccccc1NC(=S)NN

row,melting point,Structure (SMILES)
1,79 to 82 °C,CCOC(=O)CCC(NP(=O)(OC)C(C)NC(=O)CCCCN1C(=O)c2ccccc2C1=O)C(=O)OCC (centres undefined)
2,270 °C,CCC1CC(OP(=O)(O)O)CC(C)(C)N1O (centres undefined)
3,-77.3 °C,CCC(Cl)C(C)Cl (centres undefined)
4,-23 °C,O=[N+]([O-])CCc1ccccc1
5,222 °C,Cc1cc(-c2cc(C)c(O)c(C)c2)cc(C)c1O
6,156 to 157 °C,CSc1ncc(Br)c(C(=O)O)n1
7,139 to 143 °C,COC(=O)c1scc(S(=O)(=O)C(C)C)c1N
8,49 °C,OCc1cccc(OCc2ccccc2)c1
9,141 °C,O=C(Nc1ccccc1)OCc1ccccc1[N+](=O)[O-]
10,196 °C,CC(=O)NS(=O)(=O)c1ccc(NC(=O)c2ccccc2C(=O)O)cc1
11,32 to 34 °C,CCC1=[N+]([O-])C(C)(C)N(C)C1(C)C
12,218 °C,CC(=O)Oc1cccc2c1C(=O)c1c(OC(C)=O)cc(C(=O)O)cc1C2=O
13,< 25 °C,C=CC(C)(O)CCC=C(C)C (centres undefined)
14,95 °C,CNC(=O)COC1CCN(C(=O)OC(C)(C)C)CC1
15,17.9 °C,CCCCCCCCCCCC(CCCCCCCC)c1ccccc1 (centres undefined)
16,115 to 117 °C,Cc1csc(C(N)=O)c1
17,220 °C,O=C(O)c1ccc(N=C=S)cc1
18,83 °C,CC(C)(C)c1cc(Br)cc(C(C)(C)C)c1O
19,120 °C,COC(=O)c1cc(C)[nH]c1C
20,248 °C,CC[C@H](C)[C@H](NC(=O)CN)C(=O)O (H-Gly-Ile-OH)
